Literature values, collected in patent US6710179B2, “Compounds with analgesic effect” (AstraZeneca Canada Inc., priority 1996, dated 2004).

How the values were obtained:
[1] = non-peptidic δ antagonists; prior art statement
[2] = target: δ receptor (Homo sapiens, UniProt P41143); conditions: non-peptidic δ antagonists; review Takemori and Portoghese 1992
Sequence of δ receptor (P41143 whole entry): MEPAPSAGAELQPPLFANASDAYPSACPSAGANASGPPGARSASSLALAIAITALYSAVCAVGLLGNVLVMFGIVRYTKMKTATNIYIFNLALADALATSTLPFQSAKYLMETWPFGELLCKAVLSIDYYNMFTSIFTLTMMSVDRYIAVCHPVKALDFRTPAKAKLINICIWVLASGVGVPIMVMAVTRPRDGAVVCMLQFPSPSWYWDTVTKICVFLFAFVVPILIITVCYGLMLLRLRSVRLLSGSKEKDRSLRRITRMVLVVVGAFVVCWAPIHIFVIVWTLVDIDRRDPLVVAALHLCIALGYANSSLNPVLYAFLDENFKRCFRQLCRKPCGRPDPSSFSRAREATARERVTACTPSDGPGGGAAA

SMILES: Oc1ccc2c3c1O[C@H]1c4[nH]c5ccccc5c4C[C@@]4(O)[C@@H](C2)N(CC2CC2)CC[C@]314 [naltrindole]
- analgesic activity [1]: no analgesic activity
- selectivity for the δ receptor vs. μ receptor binding [2]: < 10 fold
